For 26 molecules, IC50 results are on record in patent US8207172B2 (Bayer Intellectual Property GmbH, priority 2004, dated 2012).

Assay [1] concerns A431 cells (human epidermoid carcinoma). The assay is described as follows: In vitro tumor cell proliferation assay (Cell Titer-Glo luminescent cell viability), A431. Type of assay: cell-based. The note with it: A-431, 72 h, 72 hours of drug exposure, ATP luminescence readout, read-out: IC50, anti-proliferative activity (inhibition of cell proliferation). The method in brief:
(§1)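 CellTiter-Glo luminescence (ATP content of metabolically active cells) after 72 h compound exposure at 37° C gave IC50s.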
A general note: ATP-based viability assays read luminescence as a measure of living cells.

The subject of assay [2] is BT474 (human breast carcinoma). Briefly: In vitro tumor cell proliferation assay (Cell Titer-Glo luminescent cell viability), BT474. In kind it is cell-based. The note with it: BT-474, 72 h, BT474 cells, 72 hours of drug exposure, ATP luminescence readout, read-out: IC50, anti-proliferative activity (inhibition of cell proliferation). The procedure, abridged: as §1

Where a name gives a salt, the structure may show the parent alone.

As for `COCCN1CCN(CCn2ncc3c2CCc2c-3sc3ncnc(Nc4ccc(OCc5cccc(F)c5)c(Cl)c4)c23)CC1` [Example 265, N-{3-chloro-4-[(3-fluorobenzyl)oxy]phenyl}-3-{2-[4-(2-methoxyethyl)piperazin-1-yl]ethyl}-4,5-dihydro-3H-pyrimido[5′,4′:4,5]thieno[2,3-e]indazol-6-amine trifluoroacetate], the IC50 in assay [1] is ≤ 50 µM; in assay [2] it was ≤ 1 µM.

Take `Fc1cccc(COc2ccc(Nc3ncnc4sc5c(c34)CCc3c-5cnn3CCN3CCCCC3)cc2Cl)c1` [Example 266, trifluoroacetate]: the IC50 in assay [1] is ≤ 5 µM; in assay [2], ≤ 1 µM.

As to `CN(C)C1CCN(CCn2ncc3c2CCc2c-3sc3ncnc(Nc4ccc(OCc5cccc(F)c5)c(Cl)c4)c23)C1` (stereo not shown) [Example 267, N-{3-chloro-4-[(3-fluorobenzyl)oxy]phenyl}-3-{2-[3-(dimethylamino)pyrrolidin-1-yl]ethyl}-4,5-dihydro-3H-pyrimido[5′,4′:4,5]thieno[2,3-e]indazol-6-amine trifluoroacetate], the IC50 in assay [1] is ≤ 5 µM; in assay [2] it was ≤ 1 µM.

With `OCCCn1ncc2c1CCc1c-2sc2ncnc(Nc3ccc(OCc4cccc(F)c4)c(Cl)c3)c12` [Example 268, 3-[6-({3-chloro-4-[(3-fluorobenzyl)oxy]phenyl}amino)-4,5-dihydro-3H-pyrimido[5′,4′:4,5]thieno[2,3-e]indazol-3-yl]propan-1-ol], the IC50 in assay [1] is ≤ 50 µM; in assay [2], ≤ 1 µM.

On to `CN1CCN(CCCn2ncc3c2CCc2c-3sc3ncnc(Nc4ccc(OCc5cccc(F)c5)c(Cl)c4)c23)CC1` [Example 269, N-{3-chloro-4-[(3-fluorobenzyl)oxy]phenyl}-3-[3-(4-methylpiperazin-1-yl)propyl]-4,5-dihydro-3H-pyrimido[5′,4′:4,5]thieno[2,3-e]indazol-6-amine], for which the IC50 is ≤ 5 µM in assay [1] and ≤ 1 µM in assay [2].

`COCCN(C)CCCn1ncc2c1CCc1c-2sc2ncnc(Nc3ccc(OCc4cccc(F)c4)c(Cl)c3)c12` [Example 270, N-{3-chloro-4-[(3-fluorobenzyl)oxy]phenyl}-3-{3-[(2-methoxyethyl)(methyl)amino]propyl}-4,5-dihydro-3H-pyrimido[5′,4′:4,5]thieno[2,3-e]indazol-6-amine]: the IC50 in assay [1] is ≤ 50 µM; in assay [2] it was ≤ 1 µM.

Turning to `Fc1cccc(COc2ccc(Nc3ncnc4sc5c(c34)CCc3c-5cnn3CCCN3CCOCC3)cc2Cl)c1` [Example 271, N-{3-chloro-4-[(3-fluorobenzyl)oxy]phenyl}-3-(3-morpholin-4-ylpropyl)-4,5-dihydro-3H-pyrimido[5′,4′:4,5]thieno[2,3-e]indazol-6-amine], the results for the IC50 in assay [1] and in assay [2] were ≤ 50 µM and ≤ 1 µM, respectively.

Consider `Fc1cccc(COc2ccc(Nc3ncnc4sc5c(c34)CCc3c-5cnn3CCCN3CCCC3)cc2Cl)c1` [Example 272], for which the IC50 is ≤ 5 µM in assay [1] and ≤ 1 µM in assay [2].

With `Fc1cccc(COc2ccc(Nc3ncnc4sc5c(c34)CCc3c-5cnn3CCCN3CCCCC3)cc2Cl)c1` [Example 273], the values for the IC50 in assay [1] and in assay [2] were ≤ 5 µM and ≤ 1 µM, respectively.

As for `OCCn1cc2c(n1)CCc1c-2sc2ncnc(Nc3ccc4c(cnn4Cc4cccc(F)c4)c3)c12` [Example 275, 2-(6-{[1-(3-fluorobenzyl)-1H-indazol-5-yl]amino}-4,5-dihydro-2H-pyrimido[5′,4′:4,5]thieno[2,3-e]indazol-2-yl)ethanol], the IC50 in assay [1] was ≤ 5 µM; in assay [2] it was ≤ 1 µM.

For the molecule `CS(=O)(=O)OCCn1cc2c(n1)CCc1c-2sc2ncnc(Nc3ccc4c(cnn4Cc4cccc(F)c4)c3)c12` [Example 276, 2-(6-{[1-(3-fluorobenzyl)-1H-indazol-5-yl]amino}-4,5-dihydro-2H-pyrimido[5′,4′:4,5]thieno[2,3-e]indazol-2-yl)ethyl methanesulfonate], the IC50 is ≤ 5 µM in assay [1] and ≤ 1 µM in assay [2].

For the molecule `CN1CCN(CCn2cc3c(n2)CCc2c-3sc3ncnc(Nc4ccc5c(cnn5Cc5cccc(F)c5)c4)c23)CC1` [Example 277], the IC50 is ≤ 5 µM in assay [1] and ≤ 1 µM in assay [2].

Turning to `Fc1cccc(Cn2ncc3cc(Nc4ncnc5sc6c(c45)CCc4nn(CCN5CCOCC5)cc4-6)ccc32)c1` [Example 278, N-[1-(3-fluorobenzyl)-1H-indazol-5-yl]-2-(2-morpholin-4-ylethyl)-4,5-dihydro-2H-pyrimido[5′,4′:4,5]thieno[2,3-e]indazol-6-amine], the values for the IC50 in assay [1] and in assay [2] were ≤ 5 µM and ≤ 1 µM, respectively.

As to `Fc1cccc(Cn2ncc3cc(Nc4ncnc5sc6c(c45)CCc4nn(CCn5ccnc5)cc4-6)ccc32)c1` [Example 279, N-[1-(3-fluorobenzyl)-1H-indazol-5-yl]-2-[2-(1H-imidazol-1-yl)ethyl]-4,5-dihydro-2H-pyrimido[5′,4′:4,5]thieno[2,3-e]indazol-6-amine], the figures for the IC50 in assay [1] and in assay [2] were ≤ 5 µM and ≤ 1 µM, respectively.

With `COCCNCCn1cc2c(n1)CCc1c-2sc2ncnc(Nc3ccc4c(cnn4Cc4cccc(F)c4)c3)c12` [Example 280, N-[1-(3-fluorobenzyl)-1H-indazol-5-yl]-2-{2-[(2-methoxyethyl)amino]ethyl}-4,5-dihydro-2H-pyrimido[5′,4′:4,5]thieno[2,3-e]indazol-6-amine], the IC50 in assay [1] was ≤ 5 µM; in assay [2] it was ≤ 1 µM.

For `OCCNCCn1cc2c(n1)CCc1c-2sc2ncnc(Nc3ccc4c(cnn4Cc4cccc(F)c4)c3)c12` [Example 281, 2-{[2-(6-{[1-(3-fluorobenzyl)-1H-indazol-5-yl]amino}-4,5-dihydro-2H-pyrimido[5′,4′:4,5]thieno[2,3-e]indazol-2-yl)ethyl]amino}ethanol], the figures for the IC50 in assay [1] and in assay [2] were ≤ 5 µM and ≤ 1 µM, respectively.

In the case of `CN(C)C1CCN(CCn2cc3c(n2)CCc2c-3sc3ncnc(Nc4ccc5c(cnn5Cc5cccc(F)c5)c4)c23)C1` (stereo not shown) [Example 282, 2-{2-[3-(dimethylamino)pyrrolidin-1-yl]ethyl}-N-[1-(3-fluorobenzyl)-1H-indazol-5-yl]-4,5-dihydro-2H-pyrimido[5′,4′:4,5]thieno[2,3-e]indazol-6-amine], the IC50 was ≤ 5 µM in assay [1] and ≤ 1 µM in assay [2].

In the case of `CCN1CCN(CCn2cc3c(n2)CCc2c-3sc3ncnc(Nc4ccc5c(cnn5Cc5cccc(F)c5)c4)c23)CC1` [Example 283, 2-[2-(4-ethylpiperazin-1-yl)ethyl]-N-[1-(3-fluorobenzyl)-1H-indazol-5-yl]-4,5-dihydro-2H-pyrimido[5′,4′:4,5]thieno[2,3-e]indazol-6-amine], the IC50 was ≤ 5 µM in assay [1] and ≤ 1 µM in assay [2].

On to `Fc1cccc(Cn2ncc3cc(Nc4ncnc5sc6c(c45)CCc4nn(CCN5CCNCC5)cc4-6)ccc32)c1` [Example 284, N-[1-(3-fluorobenzyl)-1H-indazol-5-yl]-2-(2-piperazin-1-ylethyl)-4,5-dihydro-2H-pyrimido[5′,4′:4,5]thieno[2,3-e]indazol-6-amine], for which the IC50 in assay [1] is ≤ 5 µM; in assay [2], ≤ 1 µM.

Consider `COCCN(CCOC)CCn1cc2c(n1)CCc1c-2sc2ncnc(Nc3ccc4c(cnn4Cc4cccc(F)c4)c3)c12` [Example 285, 2-{2-[bis(2-methoxyethyl)amino]ethyl}-N-[1-(3-fluorobenzyl)-1H-indazol-5-yl]-4,5-dihydro-2H-pyrimido[5′,4′:4,5]thieno[2,3-e]indazol-6-amine], for which the IC50 in assay [1] was ≤ 5 µM; in assay [2], ≤ 1 µM.

Regarding `OC1CCN(CCn2cc3c(n2)CCc2c-3sc3ncnc(Nc4ccc5c(cnn5Cc5cccc(F)c5)c4)c23)C1` (stereo not shown) [Example 286, 1-[2-(6-{[1-(3-fluorobenzyl)-1H-indazol-5-yl]amino}-4,5-dihydro-2H-pyrimido[5′,4′:4,5]thieno[2,3-e]indazol-2-yl)ethyl]pyrrolidin-3-ol], the IC50 in assay [1] was ≤ 5 µM; in assay [2], ≤ 1 µM.

In the case of `Fc1cccc(Cn2ncc3cc(Nc4ncnc5sc6c(c45)CCc4n[nH]cc4-6)ccc32)c1` [Example 288, N-[1-(3-fluorobenzyl)-1H-indazol-5-yl]-4,5-dihydro-2H-pyrimido[5′,4′:4,5]thieno[2,3-e]indazol-6-amine], the IC50 is ≤ 5 µM in assay [1] and ≤ 1 µM in assay [2].

As to `OCCn1ncc2c1CCc1c-2sc2ncnc(Nc3ccc4c(cnn4Cc4cccc(F)c4)c3)c12` [Example 289, 2-(6-{[1-(3-fluorobenzyl)-1H-indazol-5-yl]amino}-4,5-dihydro-3H-pyrimido[5′,4′:4,5]thieno[2,3-e]indazol-3-yl)ethanol], the results for the IC50 in assay [1] and in assay [2] were ≤ 5 µM and ≤ 1 µM, respectively.

As for `CS(=O)(=O)OCCn1ncc2c1CCc1c-2sc2ncnc(Nc3ccc4c(cnn4Cc4cccc(F)c4)c3)c12` [Example 290, 2-(6-{[1-(3-fluorobenzyl)-1H-indazol-5-yl]amino}-4,5-dihydro-3H-pyrimido[5′,4′:4,5]thieno[2,3-e]indazol-3-yl)ethyl methanesulfonate], the IC50 in assay [1] was ≤ 5 µM; in assay [2], ≤ 1 µM.

For `Fc1cccc(Cn2ncc3cc(Nc4ncnc5sc6c(c45)CCc4c-6cnn4CCn4ccnc4)ccc32)c1` [Example 291, N-[1-(3-fluorobenzyl)-1H-indazol-5-yl]-3-[2-(1H-imidazol-1-yl)ethyl]-4,5-dihydro-3H-pyrimido[5′,4′:4,5]thieno[2,3-e]indazol-6-amine], the IC50 in assay [1] is ≤ 5 µM; in assay [2], ≤ 1 µM.

As for `COCCN(CCOC)CCn1ncc2c1CCc1c-2sc2ncnc(Nc3ccc4c(cnn4Cc4cccc(F)c4)c3)c12` [Example 292, 3-{2-[bis(2-methoxyethyl)amino]ethyl}-N-[1-(3-fluorobenzyl)-1H-indazol-5-yl]-4,5-dihydro-3H-pyrimido[5′,4′:4,5]thieno[2,3-e]indazol-6-amine], the IC50 is ≤ 5 µM in assay [1] and ≤ 1 µM in assay [2].
